ChEMBL document CHEMBL1201862, “PubChem BioAssay data set” (2004)
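Growth conditions: 96-well plates. Treatment: test compound, 48 hours, 5 concentrations. Analysis: linear interpolation between bracketing concentrations; unreached endpoints set to highest concentration. GI50 = concentration required for 50% inhibition of growth.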 Activity calls are given as the source filed them. Rule as the data show it: active = GI50 up to about 1.1 µM and inactive = higher. Where a SMILES comes first, the peptide text is derived from it.

Key:
Assay in all cases: DTP human tumour cell line panel, 48 h
[1] = system: 786-0
[2] = system: SN12C
[3] = system: T47D
[4] = system: MDA-MB-435
[5] = system: SR
[6] = system: TK-10
[7] = system: UO-31
[8] = system: OVCAR-3
[9] = system: OVCAR-5
[10] = system: NCI-H460
[11] = system: NCI-H522
[12] = system: MOLT-4
[13] = system: CAKI-1
[14] = system: BT-549
[15] = system: NCI-H226
[16] = system: UACC-62
[17] = system: IGROV-1
[18] = system: A498
[19] = system: HOP-62
[20] = system: HCT-116

Measured: GI50

C=C(C)[C@H]1C2=CC(C)=C(O2)[C@@H](O)[C@H](C(=C)C)CCC2=C[C@H]1OC2=O [KALLOLIDE A]
inactive: [1] > 100 µM | [2] > 100 µM | [3] > 100 µM | [4] > 100 µM | [5] 99.5 µM | [6] > 100 µM | [7] > 100 µM | [8] > 100 µM | [9] > 100 µM | [10] > 100 µM | [11] 87.7 µM | [12] > 100 µM | [13] > 100 µM | [14] > 100 µM | [15] > 100 µM | [16] > 100 µM | [17] > 100 µM | [18] > 100 µM

O=C1Sc2cc3ccccc3cc2C(=O)Sc2cc3ccccc3cc21
active: [5] 0.454 µM
inactive: [19] 27.3 µM | [1] 15.4 µM | [2] 23.2 µM | [3] 23.3 µM | [4] 30.8 µM | [6] 55.2 µM | [20] 17.4 µM | [7] 19.5 µM | [8] 21.1 µM | [9] 36.1 µM | [10] 41.6 µM | [11] 7.45 µM | [12] 15.9 µM | [13] 32.2 µM | [14] 32.3 µM | [15] > 100 µM | [16] 24.8 µM | [17] 32.3 µM | [18] > 100 µM

COc1cc(C2C=C(c3ccccc3)Oc3cc4c(cc32)OCO4)cc(OC)c1OC (configuration not stated)
active: [19] 0.675 µM | [1] 0.386 µM | [2] 0.675 µM | [4] 0.188 µM | [5] 0.333 µM | [20] 0.311 µM | [8] 0.324 µM | [9] 0.585 µM | [10] 0.436 µM | [11] 0.327 µM | [12] 0.43 µM | [13] 0.507 µM | [14] 0.632 µM | [15] 0.376 µM | [16] 0.446 µM | [17] 0.403 µM | [18] 0.495 µM
inactive: [3] 2 µM | [6] > 36.2 µM | [7] 1.19 µM

CCc1c(Cl)nc(Cl)nc1Cl
inactive: [19] 2.09 µM | [6] 1.58 µM | [7] 1.38 µM | [10] 1.93 µM | [18] 5.79 µM
active: [1] 0.122 µM | [2] 0.333 µM | [3] 0.339 µM | [4] 0.0834 µM | [5] 0.0188 µM | [20] 0.0885 µM | [8] 0.104 µM | [9] 0.324 µM | [11] 0.0132 µM | [12] 0.0173 µM | [13] 0.0484 µM | [14] 0.0199 µM | [15] 0.0692 µM | [16] 0.528 µM | [17] 0.542 µM

COc1ccc(OC)c2nc3c(C(=O)NCCN(C)C)cccc3nc12
inactive: [19] 4.55 µM | [1] 3.05 µM | [2] 4.11 µM | [3] 14.1 µM | [4] 5.11 µM | [5] 2.17 µM | [6] 4.63 µM | [20] 1.79 µM | [7] 2.72 µM | [8] 4.93 µM | [9] 10.3 µM | [10] 3.24 µM | [11] 2.61 µM | [12] 2.8 µM | [13] 3.22 µM | [14] 10.8 µM | [15] 4.66 µM | [16] 7.71 µM | [17] 4.59 µM | [18] 13.9 µM

O[C@H]1[C@H](O)[C@H](O)CN2CCC[C@@H](O)[C@H]12
inactive: [19] > 100 µM | [1] > 100 µM | [2] > 100 µM | [3] > 100 µM | [4] > 100 µM | [5] > 100 µM | [6] > 100 µM | [20] > 100 µM | [7] > 100 µM | [8] > 100 µM | [9] > 100 µM | [11] > 100 µM | [12] > 100 µM | [13] > 100 µM | [14] > 100 µM | [15] > 100 µM | [16] > 100 µM | [17] > 100 µM | [18] > 100 µM

Oc1ccc(/C=C\c2nnc(/C=C\c3ccc(O)c(O)c3)s2)cc1O
inactive: [19] 8.85 µM | [1] 5.97 µM | [2] 5.98 µM | [3] 2.35 µM | [4] 3.78 µM | [5] 1.91 µM | [6] 6.53 µM | [20] 3.26 µM | [7] 3.38 µM | [8] 3.69 µM | [9] > 48.6 µM | [10] 4.07 µM | [13] 5.14 µM | [14] 7.19 µM | [15] 7.73 µM | [16] 3.82 µM | [17] 4.09 µM | [18] 9.16 µM
active: [11] 0.875 µM | [12] 1.08 µM

CSC(=Nc1nnc(-c2ccc([N+](=O)[O-])cc2)s1)SC
inactive: [19] 20.1 µM | [1] 20.7 µM | [2] 52.2 µM | [3] 17.8 µM | [4] > 67.1 µM | [5] > 100 µM | [6] 16.6 µM | [20] 27.4 µM | [7] 27.9 µM | [8] 57.3 µM | [9] > 100 µM | [10] > 89.1 µM | [11] 15.5 µM | [12] > 100 µM | [13] 16.7 µM | [14] > 77.4 µM | [15] 33.7 µM | [16] 25.8 µM | [17] 27.9 µM | [18] 31.4 µM

CC(C)CC(NC(=O)C(Cc1ccccc1)NC(=O)C(Cc1c[nH]c2ccccc12)NC(=O)CNC(=O)C(N)Cc1ccc(O)cc1)C(=O)O (configuration not stated) (H-YGWFL-OH; configuration not given here)
inactive: [19] 46.5 µM | [1] 23.6 µM | [2] 48.6 µM | [3] 25.6 µM | [4] 34.9 µM | [5] 32.4 µM | [6] 78.7 µM | [20] 27.4 µM | [7] 81.3 µM | [8] 23.2 µM | [9] > 100 µM | [10] 44.4 µM | [11] 34 µM | [12] 59.7 µM | [13] 34.9 µM | [14] > 100 µM | [15] 46.8 µM | [16] 67.3 µM | [17] 58.7 µM | [18] 32.3 µM

O=C(Cn1c(C(=O)c2ccccc2)nc2ccccc21)c1ccccc1
inactive: [19] 26.5 µM | [1] > 63.8 µM | [2] > 100 µM | [3] > 100 µM | [4] 3.72 µM | [5] > 100 µM | [6] > 100 µM | [20] > 100 µM | [7] > 56.1 µM | [8] > 100 µM | [9] > 100 µM | [10] > 90.6 µM | [11] > 58.3 µM | [12] > 100 µM | [13] > 100 µM | [14] > 100 µM | [15] > 100 µM | [16] > 56.6 µM | [17] > 31.6 µM | [18] > 100 µM

COc1ccc(C(=O)N(Cc2cccnc2)C(=S)N(Cc2cccnc2)C(=O)c2ccc(OC)cc2)cc1
inactive: [19] 35 µM | [1] > 100 µM | [2] > 100 µM | [3] > 100 µM | [4] 62.8 µM | [5] > 100 µM | [6] > 100 µM | [20] > 100 µM | [8] > 100 µM | [9] > 100 µM | [10] > 100 µM | [11] 72.1 µM | [12] > 100 µM | [13] 86.9 µM | [14] > 100 µM | [15] > 100 µM | [16] > 100 µM | [18] > 100 µM

NC(=O)CSc1c2cc(O)ccc2nc2ccc(O)cc12
inactive: [19] > 10 µM | [1] > 10 µM | [2] > 10 µM | [3] > 10 µM | [4] > 10 µM | [5] > 10 µM | [6] > 10 µM | [20] > 10 µM | [8] > 10 µM | [9] > 10 µM | [10] > 10 µM | [11] > 10 µM | [12] > 10 µM | [13] > 10 µM | [14] > 10 µM | [15] > 10 µM | [16] > 10 µM | [17] > 10 µM | [18] > 10 µM

O=[N+]([O-])c1ccc2c3c1[C@@H]1O[C@@H]1c1cccc(c1-3)[C@@H]1O[C@H]21
inactive: [19] 10.2 µM | [1] 2.47 µM | [2] 2.71 µM | [3] 3.35 µM | [4] 2.08 µM | [5] 4.21 µM | [6] 7.78 µM | [20] 2.42 µM | [7] 2.07 µM | [8] 3.05 µM | [9] 13.6 µM | [11] 1.67 µM | [12] 4.69 µM | [13] 1.61 µM | [14] 6.11 µM | [15] 26.6 µM | [16] 7.14 µM | [17] 1.24 µM | [18] 3.23 µM

Cn1cnc([N+](=O)[O-])c1Sc1nc(N)nc2c1ncn2Cc1ccccc1
inactive: [19] 19.7 µM | [1] 19 µM | [2] 15.8 µM | [3] 13.8 µM | [4] 21.6 µM | [5] 17.9 µM | [6] 15.8 µM | [20] 20.7 µM | [7] 15.5 µM | [8] 2.29 µM | [9] 23.2 µM | [10] 17.8 µM | [11] 10.2 µM | [13] 13.3 µM | [14] 22.1 µM | [15] 23.9 µM | [16] 16.3 µM | [17] 14.5 µM | [18] 25 µM
